Source: patent publication US20260242373A1, “NBD1 MODULATORS AND METHODS OF USING THE SAME” (Sionna Therapeutics Inc., priority 2023, published 2026)

The compounds below were run on NBD1 (assay: Aggregation analysis of NBD1 thermal stability by differential static light scattering (DSLS)). Settings: 100 μM compound; ΔTagg versus DMSO control.
Format: binding, Human
Protocol: Purified recombinant NBD1 was produced using previously described methods (A. Schmidt, J. L. Mendoza, P. J. Thomas (2011) Biochemical and Biophysical Approaches to Probe CFTR Structure (365-376) M. D. Amaral, K. Kunzelmann (eds.), Cystic Fibrosis, Methods in Molecular Biology 741, Springer Science+Business Media). The effect of test compounds on thermal stability of NBD1 was evaluated by differential static light scattering (DSLS) using the Harbinger Stargazer-384 instrument (Epiphyte Three, Toronto, Canada). Test compounds were dissolved and diluted to desired concentrations in 100% DMSO. The compounds or DMSO controls (100 nL) were stamped into wells of a […] low volume optical plate (Corning Inc., Corning, NY) using the Echo 555 acoustic liquid handler (Labcyte Inc., San Jose, CA).
NBD1 protein was diluted to 0.2 mg/ml in S200 buffer (50 mM Tris-HCl, 150 mM NaCl, 5 mM MgCl2, 2 mM ATP, 2 mM DTT, pH7.6) containing 1% glycerol. 10 uL of protein solution was aliquoted into the 384-well plate harboring the test compounds and 10 uL mineral oil was overlayed onto the protein solution, using the epMotion robotic liquid handler (Eppendorf North America, Hauppauge, NY). After placing into the Stargazer instrument, the plate was heated at 1° C. per minute to 70° C. Images were captured from 25° C. to 70° C. every 0.5° C. At the end of the experiment run, instrument software integrated image files and analyzed data automatically. A […] regression curve was generated for each well, representing the increase in light scattering over time. A temperature of aggregation (Tagg) was calculated based on the inflection point of the curve. To better compare data across experiments the average Tagg for DMSO control wells was calculated and subtracted from values for wells containing compounds to obtain a “ΔTagg” value. These ΔTagg values reflect stabilizing efficacy of the compounds.

With Cc1c(Oc2cccc(-c3nn(Cc4cccc(CCC(=O)O)c4)cc3F)c2)c(F)cc2[nH]ccc12 [Compound 54, 3-(3-((4-fluoro-3-(3-((6-fluoro-4-methyl-1H-indol-5-yl)oxy)phenyl)-1H-pyrazol-1-yl)methyl)phenyl)propanoic acid] as the compound, how does the “DSLS NBD1/3D Human Stability delta-T (° C.) @ 100 (μM)” value (shortened to “DSLS NBD1/3D Human Stability delta-T”) read?
Its value is “B (B: 4-8° C.)”.

With Cn1cc(Cc2nnc(-c3cccc(Oc4ccc5[nH]ccc5n4)c3)[nH]2)cn1 [Compound 31, 5-(3-(5-((1-methyl-1H-pyrazol-4-yl)methyl)-4H-1,2,4-triazol-3-yl)phenoxy)-1H-pyrrolo[3,2-b]pyridine] as the compound, how does the “DSLS NBD1/3D Human Stability delta-T” value read?
Its value is “C (C: ≤4° C.)”.

Which “DSLS NBD1/3D Human Stability delta-T” value does the source give for Cn1cc(Cc2nnc(-c3cccc(Oc4ccc5[nH]ccc5c4)c3)[nH]2)cn1 [Compound 25, 5-(3-(5-((1-methyl-1H-pyrazol-4-yl)methyl)-4H-1,2,4-triazol-3-yl)phenoxy)-1H-indole] here?
The value was “C (C: ≤4° C.)”.

How did the “DSLS NBD1/3D Human Stability delta-T” value turn out when O=C(O)CCc1cccc(Cc2cc(N3CCCC3=O)n(-c3cc(Oc4c(F)cc5[nH]ccc5c4F)ccc3F)n2)c1 [Compound 58, 3-[3-[[1-[5-[(4,6-difluoro-1H-indol-5-yl)oxy]-2-fluoro-phenyl]-5-(2-oxopyrrolidin-1-yl)pyrazol-3-yl]methyl]phenyl]propanoic acid] was run?
The value was “C (C: ≤4° C.)”.

How did the “DSLS NBD1/3D Human Stability delta-T” value turn out when CC(c1cccc(CCC(=O)O)c1F)c1nc(-c2cc(Oc3c(F)cc4[nH]ccc4c3F)ccc2F)n2c1CCCC2 (stereo not shown) [Compound 47, 3-(3-(1-(3-(5-((4,6-difluoro-1H-indol-5-yl)oxy)-2-fluorophenyl)-5,6,7,8-tetrahydroimidazo[1,5-a]pyridin-1-yl)ethyl)-2-fluorophenyl)propanoic acid] was run?
The value was “C (C: ≤4° C.)”.

Cn1nccc1C(O)c1cnc(-c2cccc(Oc3ccc4[nH]cnc4c3)c2)[nH]1 (stereo not shown) [Compound 29, (2-(3-((1H-benzo[d]imidazol-5-yl)oxy)phenyl)-1H-imidazol-5-yl)(1-methyl-1H-pyrazol-5-yl)methanol] was tested. Which “DSLS NBD1/3D Human Stability delta-T” value did it give?
The value was “C (C: ≤4° C.)”.

Which “DSLS NBD1/3D Human Stability delta-T” value does the source give for CN(C)CCNC(=O)c1c(Oc2cccc(-c3nnc(C(O)c4cncs4)[nH]3)c2)ccc2[nH]ccc12 (stereo not shown) [Compound 41, N-(2-(dimethylamino)ethyl)-5-(3-(5-(hydroxy(thiazol-5-yl)methyl)-4H-1,2,4-triazol-3-yl)phenoxy)-1H-indole-4-carboxamide] here?
The value was “C (C: ≤4° C.)”.

With c1cc(Oc2ccc3[nH]ccc3c2)cc(-c2nnc(Cc3ccsc3)[nH]2)c1 [Compound 11, 5-(3-(5-(thiophen-3-ylmethyl)-4H-1,2,4-triazol-3-yl)phenoxy)-1H-indole] as the compound, how does the “DSLS NBD1/3D Human Stability delta-T” value read?
Its value is “C (C: ≤4° C.)”.

Cn1cc(Cc2cnc(-c3cccc(Oc4ccc5[nH]ccc5c4)c3)[nH]2)cn1 [Compound 28, 5-(3-(5-((1-methyl-1H-pyrazol-4-yl)methyl)-1H-imidazol-2-yl)phenoxy)-1H-indole] was tested. Which “DSLS NBD1/3D Human Stability delta-T” value did it give?
The value was “C (C: ≤4° C.)”.

COc1cc(C(C)c2cccc(CCC(=O)O)c2F)nn1-c1cc(Oc2c(F)cc3[nH]ccc3c2F)ccc1F (stereo not shown) [Compound 50, 3-(3-(1-(1-(5-((4,6-difluoro-1H-indol-5-yl)oxy)-2-fluorophenyl)-5-methoxy-1H-pyrazol-3-yl)ethyl)-2-fluorophenyl)propanoic acid] was tested. Which “DSLS NBD1/3D Human Stability delta-T” value did it give?
Its value is “B (B: 4-8° C.)”.

Cc1ncc(C(O)c2nnc(-c3cccc(Oc4ccc5[nH]ccc5c4C(=O)O)c3)[nH]2)s1 (stereo not shown) [Compound 38, 5-(3-(5-(hydroxy(2-methylthiazol-5-yl)methyl)-4H-1,2,4-triazol-3-yl)phenoxy)-1H-indole-4-carboxylic acid] was tested. Which “DSLS NBD1/3D Human Stability delta-T” value did it give?
Its value is “C (C: ≤4° C.)”.

CC(C1=NN(c2cc(Oc3c(F)cc4[nH]ccc4c3F)ccc2F)C(=O)C1)c1cccc(CCC(=O)O)c1F (stereo not shown) [Compound 51, 3-(3-(1-(1-(5-((4,6-difluoro-1H-indol-5-yl)oxy)-2-fluorophenyl)-5-oxo-4,5-dihydro-1H-pyrazol-3-yl)ethyl)-2-fluorophenyl)propanoic acid] was tested. Which “DSLS NBD1/3D Human Stability delta-T” value did it give?
The value was “B (B: 4-8° C.)”.

With Cc1cnc(C(O)c2c[nH]c(-c3cccc(Oc4ccc5[nH]ccc5c4)c3)n2)s1 (stereo not shown) [Compound 22, (2-(3-((1H-indol-5-yl)oxy)phenyl)-1H-imidazol-4-yl)(5-methylthiazol-2-yl)methanol] as the compound, how does the “DSLS NBD1/3D Human Stability delta-T” value read?
Its value is “B (B: 4-8° C.)”.

For Cc1c(Oc2ccc(F)c(-c3ccn(Cc4cnc(CCC(N)=O)s4)n3)c2)c(F)cc2[nH]ccc12 [Compound 6], which “DSLS NBD1/3D Human Stability delta-T” value is on record?
The value was “C (C: ≤4° C.)”.

Which “DSLS NBD1/3D Human Stability delta-T” value does the source give for Cn1nccc1C(O)c1cnc(-c2cccc(Oc3ccc4[nH]ccc4c3)c2)[nH]1 (stereo not shown) [Compound 26, (2-(3-((1H-indol-5-yl)oxy)phenyl)-1H-imidazol-5-yl)(1-methyl-1H-pyrazol-5-yl)methanol] here?
The value was “C (C: ≤4° C.)”.

For O=C(O)CCc1ccc(Cc2cnc(-c3cc(Oc4c(F)cc5[nH]ccc5c4F)ccc3F)[nH]2)s1 [Compound 43, 3-(5-((2-(5-((4,6-difluoro-1H-indol-5-yl)oxy)-2-fluorophenyl)-1H-imidazol-5-yl)methyl)thiophen-2-yl)propanoic acid], which “DSLS NBD1/3D Human Stability delta-T” value is on record?
Its value is “A (A: T ≥8° C.)”.

Which “DSLS NBD1/3D Human Stability delta-T” value does the source give for O[C@H](Cc1cncs1)c1c[nH]c(-c2cccc(Oc3ccc4[nH]ccc4c3)c2)n1 (single isomer, unassigned) [Compound 23] here?
The value was “B (B: 4-8° C.)”.

With Cc1ncc(Cc2nnc(-c3cccc(Oc4ccc5[nH]ccc5c4)c3)[nH]2)s1 [Compound 18, 5-((5-(3-((1H-indol-5-yl)oxy)phenyl)-4H-1,2,4-triazol-3-yl)methyl)-2-methylthiazole] as the compound, how does the “DSLS NBD1/3D Human Stability delta-T” value read?
Its value is “B (B: 4-8° C.)”.

Cc1ncc(C(O)c2nnc(-c3cccc(Oc4ccc5[nH]ccc5c4CO)c3)[nH]2)s1 (stereo not shown) [Compound 37, (5-(3-((4-(hydroxymethyl)-1H-indol-5-yl)oxy)phenyl)-4H-1,2,4-triazol-3-yl)(2-methylthiazol-5-yl)methanol] was tested. Which “DSLS NBD1/3D Human Stability delta-T” value did it give?
Its value is “B (B: 4-8° C.)”.

Clc1ccc(Cc2n[nH]c(-c3cccc(Oc4cc5cc[nH]c5cn4)c3)n2)s1 [Compound 19, 5-(3-(3-((5-chlorothiophen-2-yl)methyl)-1H-1,2,4-triazol-5-yl)phenoxy)-1H-pyrrolo[2,3-c]pyridine] was tested. Which “DSLS NBD1/3D Human Stability delta-T” value did it give?
The value was “C (C: ≤4° C.)”.

With Cc1ncc(C(O)c2nnc(-c3cccc(Oc4ccc5[nH]ccc5c4C(N)=O)c3)[nH]2)s1 (stereo not shown) [Compound 39, 5-(3-(5-(hydroxy(2-methylthiazol-5-yl)methyl)-4H-1,2,4-triazol-3-yl)phenoxy)-1H-indole-4-carboxamide] as the compound, how does the “DSLS NBD1/3D Human Stability delta-T” value read?
The value was “B (B: 4-8° C.)”.

With Cn1cc(C(O)c2nnc(-c3cccc(Oc4ccc5[nH]ccc5c4)c3)[nH]2)cn1 (stereo not shown) [Compound 30, (5-(3-((1H-indol-5-yl)oxy)phenyl)-4H-1,2,4-triazol-3-yl)(1-methyl-1H-pyrazol-4-yl)methanol] as the compound, how does the “DSLS NBD1/3D Human Stability delta-T” value read?
The value was “B (B: 4-8° C.)”.

With O=C(NCC(O)C(F)(F)F)c1c(Oc2cccc(-c3nnc(C(O)c4cncs4)[nH]3)c2)ccc2[nH]ccc12 (stereo not shown) [Compound 42, 5-(3-(5-(hydroxy(thiazol-5-yl)methyl)-4H-1,2,4-triazol-3-yl)phenoxy)-N-(3,3,3-trifluoro-2-hydroxypropyl)-1H-indole-4-carboxamide] as the compound, how does the “DSLS NBD1/3D Human Stability delta-T” value read?
The value was “B (B: 4-8° C.)”.

With CC(c1noc(-c2cc(Oc3c(F)cc4[nH]ccc4c3F)ccc2F)n1)c1cccc(CCC(=O)O)c1F (stereo not shown) [Compound 53, 3-(3-(1-(5-(5-((4,6-difluoro-1H-indol-5-yl)oxy)-2-fluorophenyl)-1,2,4-oxadiazol-3-yl)ethyl)-2-fluorophenyl)propanoic acid] as the compound, how does the “DSLS NBD1/3D Human Stability delta-T” value read?
The value was “B (B: 4-8° C.)”.

With Cc1cc(Cc2nnc(-c3cccc(Oc4cc5cc[nH]c5cn4)c3)[nH]2)cs1 [Compound 9, 5-(3-(5-((5-methylthiophen-3-yl)methyl)-4H-1,2,4-triazol-3-yl)phenoxy)-1H-pyrrolo[2,3-c]pyridine] as the compound, how does the “DSLS NBD1/3D Human Stability delta-T” value read?
The value was “C (C: ≤4° C.)”.

For Cc1csc(Cc2nnc(-c3cccc(Oc4ccc5[nH]ccc5c4)c3)[nH]2)n1 [Compound 15, 2-((5-(3-((1H-indol-5-yl)oxy)phenyl)-4H-1,2,4-triazol-3-yl)methyl)-4-methylthiazole], which “DSLS NBD1/3D Human Stability delta-T” value is on record?
Its value is “C (C: ≤4° C.)”.

CC(c1cccc(CCC(=O)O)c1F)c1nn(-c2cc(Oc3c(F)cc4[nH]ccc4c3F)ccc2F)c2c1CCC2 (stereo not shown) [Compound 59, 3-[3-[1-[1-[5-[(4,6-difluoro-1H-indol-5-yl)oxy]-2-fluoro-phenyl]-5,6-dihydro-4H-cyclopenta[c]pyrazol-3-yl]ethyl]-2-fluoro-phenyl]propanoic acid] was tested. Which “DSLS NBD1/3D Human Stability delta-T” value did it give?
Its value is “C (C: ≤4° C.)”.

For Cc1c(Oc2ccc(F)c(-c3nc(Cc4csc(CCC(=O)O)n4)c[nH]3)c2)c(F)cc2[nH]ccc12 [Compound 1, 3-(4-((2-(2-fluoro-5-((6-fluoro-4-methyl-1H-indol-5-yl)oxy)phenyl)-1H-imidazol-4-yl)methyl)thiazol-2-yl)propanoic acid], which “DSLS NBD1/3D Human Stability delta-T” value is on record?
Its value is “B (B: 4-8° C.)”.
